Measurements as given in patent US20230219969A1 (priority 2020, published 2023).

System: Rat cortical neurons
Experiment: Neurite Outgrowth in Primary Neuronal Cultures Assay (Procedure B)
Type: cell-based
Parameters: key: A: Statistically significant mean increase as a percent of DMSO control at 10 μM or less; B: No statistically significant mean increase as a percent of DMSO control at 10 μM or less
Details: 72 h, percent of DMSO control at 10 μM or less
Text: Neurite Outgrowth in Primary Neuronal Cultures Assay (Procedure B). Changes in the pattern of neurite outgrowth have been implicated in psychiatric and neurodegenerative disorders as well as traumatic injuries. The discovery of new compounds that can positively affect neuritogenesis are important for developing new therapeutics for neurological diseases. Measurement of neurite outgrowth of rat cortical neurons using an automated image-based assay was used to determine the neuroplastic effects of the compounds of the present invention. The neurite outgrowth assay was performed at Neurofit SAS (France) as described below.
Pregnant Wistar rats (Janvier; France) were used for the study. They were delivered 6 days before their use. Upon arrival at Neurofit animal facility, they were housed one per cage and maintained in a room with controlled temperature (21-22° C.) and a reversed light-dark cycle (12 h/12 h; lights on: 17:30-05:30; lights off: 05:30-17:30) with food and water available ad libitum.
Female Wistar rats of 17 days gestation were killed by cervical dislocation and the fetuses were removed from the uterus. Their brains were placed in ice-cold medium of Leibovitz (L15, Gibco, Fisher bioblock, France). Cortices were dissected and meninges were carefully removed. The cortical neurons were dissociated by trypsinization for 30 min at 37° C. (trypsin-EDTA, Gibco) in presence of 0.1 mg/ml DNAse I (Roche, France). The reaction was stopped by addition of Dulbecco's Modified Eagle Medium (DMEM; Gibco) with 10% of fetal bovine serum (FBS; Gibco). The suspension was triturated with a 10-ml pipette and using a needle syringe 21G and centrifuged at 350×g for 10 min at room temperature. The pellet of dissociated cells was resuspended in a medium consisting of Neurobasal (Gibco) supplemented with 2% B27 supplement (Gibco), 0.5 mM L-Glutamine (Gibco), an antibiotic-antimicotic mixture. Viable cells were counted in a Neubauer cytometer using the trypan blue exclusion test (Sigma). Cells were seeded at a density of 10000 cells per well in 96-well plate (Costar) precoated with poly-L-lysine. Test compound at different concentrations were added to the cultures. Donepezil (positive control) was tested at 250 nM.
After 72 h (3 days) of plating, cultures were fixed with paraformaldehyde in PBS (4%, Sigma) for 30 min at 4° C. Then, cells were successively permeabilized with 0.1% Triton X100 for 30 min, saturated with PBS containing 3% of BSA and were incubated 1 h with anti-beta III tubulin antibody (Sigma) at 1/10 000 in PBS containing 0.5% of BSA. Cells were washed three times with PBS containing 0.5% of BSA, and they were incubated 1 h with goat anti-mouse antibody coupled with AF488 (Invitrogen A11001) diluted at 1/1000 in PBS containing 0.5% of BSA. Finally, nuclei were staining with DAPI 1 mg/ml at 1/1000 in PBS containing 0.5% of BSA. After rinsing with PBS, the plate was filmed and neurite networks were examined and analyzed using High-Content Screening (CellInsight, Thermo Scientific). The average number of neurites per neuron and the average total length of neurites per neuron were the main parameters analyzed. Analysis of data was performed using analysis of variance (ANOVA). The Fisher's Protected Least Significant Difference test was used for multiple comparisons. A p value<0.05 was considered significant. The software used is StatView 5.0 from SAS Institut.
In some embodiments, a compound of the present invention increases the pattern of neurite outgrowth. In some embodiments, a compound of the present invention increases neurite average length compared to a control. In some embodiments, a compound of the present invention increases neurite branch points compared to a control.

Compound | Increase in Neurite Length | Increase in Neurite Number
COc1cnc2c(ccn2C[C@@H](C)N(C)C)c1 [Example 36, (R)-1-(5-methoxy-1H-pyrrolo[2,3-b]pyridin-1-yl)-N,N-dimethylpropan-2-amine] | B | B
C[C@H](Cn1ccc2cncnc21)N(C)C [Example 27, (R)—N,N-dimethyl-1-(7H-pyrrolo[2,3-d]pyrimidin-7-yl)propan-2-amine] | A | B
COc1ccc2c(ccn2C[C@@H](C)N)n1 [Example 28, (R)-1-(5-methoxy-1H-pyrrolo[3,2-b]pyridin-1-yl)propan-2-amine] | A | B
COc1ccc2c(c1)CCCN2CCN(C)C [Example 9, 2-(6-methoxy-3,4-dihydroquinolin-1(2H)-yl)-N,N-dimethylethan-1-amine] | B | B

Target: T1, 5HT2A (Homo sapiens, UniProt P28223)
T1 sequence (P28223 whole entry): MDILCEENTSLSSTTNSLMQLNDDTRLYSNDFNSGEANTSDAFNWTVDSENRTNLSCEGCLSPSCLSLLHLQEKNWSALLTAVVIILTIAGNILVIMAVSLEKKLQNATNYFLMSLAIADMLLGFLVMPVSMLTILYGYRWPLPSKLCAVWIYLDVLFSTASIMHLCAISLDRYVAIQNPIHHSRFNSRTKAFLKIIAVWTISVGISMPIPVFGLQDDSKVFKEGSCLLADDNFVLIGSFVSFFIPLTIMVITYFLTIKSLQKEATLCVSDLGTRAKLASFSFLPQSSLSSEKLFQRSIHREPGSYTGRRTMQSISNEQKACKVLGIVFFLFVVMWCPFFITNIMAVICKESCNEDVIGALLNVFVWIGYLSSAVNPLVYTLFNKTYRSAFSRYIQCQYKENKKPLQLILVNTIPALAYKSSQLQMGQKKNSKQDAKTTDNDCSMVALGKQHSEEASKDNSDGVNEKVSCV
Experiment: Serotonin 5-HT2A in vitro cellular IPOne agonism assay
Type: cell-based
Parameters: host or cells: CHO-K1
Details: CHO-K1 cells, IPOne HTRF; read-out: 5-HT2A IPOne Agonism Activity
Protocol: Serotonin 5-HT2A In Vitro Cellular IPOne Agonism Assay. The 5-HT2A IPOne HTRF assay was performed at Epics Therapeutics S.A. (Belgium, FAST-0505I) using conventional methods. Briefly, CHO-K1 cells expressing human recombinant 5-HT2A receptor grown to mid-log phase in culture media without antibiotics were detached with PBS-EDTA, centrifuged, and resuspended in medium without antibiotics buffer. 20,000 cells are distributed in a 96 well plate and incubated overnight at 37° C. with 5% CO2.
For agonist testing, the medium is removed and 20 μl of assay buffer plus 20 μl of test compound or reference agonist are added in each well. The plate is incubated for 60 min. at 37° C. with 5% CO2.
After addition of the lysis buffer containing IP1-d2 and anti-IP1 cryptate detection reagents, plates are incubated 1-hour at room temperature, and fluorescence ratios are measured according to the manufacturer specification, with the HTRF kit.
(§1) The compounds provided herein were tested in the Serotonin 5-HT2A and 5-HT2C in vitro radioligand binding and cellular IPOne agonism assays. The binding and agonism functional potencies of several compound provided herein compounds (as indicated by their IC50s or EC50s) are shown in Table 11.

Compound | EC50 [µM]
COc1cnc2c(ccn2C[C@@H](C)N(C)C)c1 [Example 36, (R)-1-(5-methoxy-1H-pyrrolo[2,3-b]pyridin-1-yl)-N,N-dimethylpropan-2-amine] | > 10
C[C@H](Cn1ccc2cncnc21)N(C)C [Example 27, (R)—N,N-dimethyl-1-(7H-pyrrolo[2,3-d]pyrimidin-7-yl)propan-2-amine] | > 10
COc1ccc2c(ccn2C[C@@H](C)N)n1 [Example 28, (R)-1-(5-methoxy-1H-pyrrolo[3,2-b]pyridin-1-yl)propan-2-amine] | > 10
COc1ccc2c(c1)CCCN2CCN(C)C [Example 9, 2-(6-methoxy-3,4-dihydroquinolin-1(2H)-yl)-N,N-dimethylethan-1-amine] | > 10

System: 5HT2A
Experiment: not given
Type: cell-based
Details: result in words

Compound | activation of 5HT2A sensor assay in agonist mode
CCN(CC)C(=O)[C@@H]1C=C2c3cccc4[nH]cc(c34)C[C@H]2N(C)C1 [LSD] | activate the 5HT2A sensor assay in agonist mode
CN[C@H](C)Cc1ccc2c(c1)OCO2 [R-MDMA] | do not activate the 5HT2A sensor assay in agonist mode
CN(C)CCc1c[nH]c2ccccc12 [DMT, N,N-dimethyltryptamine] | activate the 5HT2A sensor assay in agonist mode
CCN(CC)CCc1c[nH]c2cc(F)ccc12 [Example 6-F-DET] | do not activate the 5HT2A sensor assay in agonist mode
CNC(C)Cc1ccc2c(c1)OCO2 [L-MDMA] | do not activate the 5HT2A sensor assay in agonist mode
CCN(CC)C(=O)[C@@H]1C=C2c3cccc4[nH]c(Br)c(c34)C[C@H]2N(C)C1 [BOL148] | do not activate the 5HT2A sensor assay in agonist mode
COc1cc(CC(C)N)c(OC)cc1I (stereo not drawn) [DOI] | activate the 5HT2A sensor assay in agonist mode
O=C(c1ccc(F)cc1)C1CCN(CCn2c(=O)[nH]c3ccccc3c2=O)CC1 [Ketanserin] | do not activate the 5HT2A sensor assay in agonist mode

Target: T1, 5HT2A
Experiment: Serotonin 5-HT2A in vitro radioligand binding competition assay ([3H]-DOI)
Parameters: purchased Epics Therapeutics S.A. (Belgium) FAST-0505B
Details: [3H]-DOI competition, membrane extracts; read-out: 5-HT2A Radioligand Binding Activity
Protocol: Serotonin 5-HT2A In Vitro Radioligand Binding Competition Assay. The 5-HT2A radioligand binding competition assay was performed at Epics Therapeutics S.A. (Belgium, FAST-0505B) using conventional methods. Briefly, competition binding is performed in duplicate in the wells of a 96 well plate (Master Block, Greiner, 786201) containing binding buffer (optimized for each receptor), membrane extracts (amount of protein/well optimized for each receptor), radiotracer [^3H]-DOI (final concentration optimized for each receptor) and test compound. Nonspecific binding is determined by co-incubation with 200-fold excess of cold competitor. The samples are incubated in a final volume of 0.1 ml at a temperature and for a duration optimized for each receptor and then filtered over filter plates. Filters are washed six times with 0.5 ml of ice-cold washing buffer (optimized for each receptor) and 50 μl of Microscint 20 (Packard) are added in each well. The plates are incubated 15 min on an orbital shaker and then counted with a TopCount™ for 1 min/well.
as §1

Compound | IC50 [µM]
COc1cnc2c(ccn2C[C@@H](C)N(C)C)c1 [Example 36, (R)-1-(5-methoxy-1H-pyrrolo[2,3-b]pyridin-1-yl)-N,N-dimethylpropan-2-amine] | > 10
C[C@H](Cn1ccc2cncnc21)N(C)C [Example 27, (R)—N,N-dimethyl-1-(7H-pyrrolo[2,3-d]pyrimidin-7-yl)propan-2-amine] | > 10
COc1ccc2c(ccn2C[C@@H](C)N)n1 [Example 28, (R)-1-(5-methoxy-1H-pyrrolo[3,2-b]pyridin-1-yl)propan-2-amine] | > 10
COc1ccc2c(c1)CCCN2CCN(C)C [Example 9, 2-(6-methoxy-3,4-dihydroquinolin-1(2H)-yl)-N,N-dimethylethan-1-amine] | 0.101 to 1
